Reference: paper PMC9474448, “Assembly of transmembrane pores from mirror-image peptides” (Nature Communications, 2022)

Key:
Assay type in all cases: binding
DpPorA = experiment: Single-molecule sensing: analyte blocking of single DpPorA pore; conditions: 1 M KCl; for ion current blockage of single DpPorA (in words): 10 mM HEPES pH 7.4, am8γCD 10 μM trans at positive voltages, γCD, s8γCD 100 μM cis, D9, R4 10 μM cis
Protocol: (§1) Electrical recordings were carried out by using bilayers of 1,2-diphytanoyl-sn-glycero-3-phosphocholine (DPhPC, Avanti Polar Lipids) formed across ~100 µm in diameter polytetrafluoroethylene (Teflon) film of 25 µm thick (Goodfellow, Cambridge)[59]. The Teflon film is sandwiched between two sides of the Delrin bilayer chamber, called cis and trans compartments (500 µL each). Solvent-free bilayers were formed by pre-treating the aperture with hexadecane in n-pentane (1 μL, 5 mg mL^−1) on each side of the bilayer chamber. Then the bilayer chamber was filled with the electrolyte solution (1 M KCl, 10 mM HEPES, pH 7.4) and DPhPC in n-pentane (2 μL, 5 mg mL^−1) was added to both sides of the chamber. After 5 min, a bilayer was formed when the electrolyte was raised, bringing the two lipid surface monolayers together at the aperture. pPorA pores were formed by adding self-assembled preoligomers extracted from the SDS PAGE gel to the cis side of the chamber. The cWza pores were formed by adding peptide solution in 0.1% DDM (1 µL, 100 µg mL^−1) to the cis side. The cis chamber was connected to the grounded electrode and the trans chamber was attached to the working electrode. A potential difference was applied through a pair of Ag/AgCl electrodes, set in 3% agarose containing 3.0 M KCl. We investigated the ion selectivity of pores using the KCl salt gradient applied across the bilayer chambers (1 M cis /0.15 M trans). The reverse potential was determined to calculate the permeability ratio of K^+ and Cl^- ions across the pore (Supplementary text). The current was amplified using an Axopatch 200B amplifier, digitized with a Digidata 1550B digitizer (pCLAMP 11.0, Molecular Devices, CA) with a low-pass filter frequency of 10 kHz and a sampling frequency of 50 kHz or a low-pass filter frequency of 2 kHz and a sampling frequency of 10 kHz. Single-channel data analysis was conducted using Clampfit 11.0 (Molecular devices, CA). Histogram plotting were performed in OriginPro 2022 (OriginLab).

LpPorA = experiment: Single-channel analyte blocking of LpPorA pore; conditions: +50 mV; am8γCD 1 µM trans; 1 M KCl; n = 3
Protocol: as §1, with “A potential difference was applied through a pair of Ag/AgCl electrodes, set in 3% agarose containing 3.0 M KCl. We investigated the ion selectivity of pores using the KCl salt gradient applied across the bilayer chambers (1 M cis /0.15 M trans).” left out, “The current was amplified using an Axopatch 200B amplifier, digitized with a Digidata 1550B digitizer (pCLAMP 11.0, Molecular Devices, CA) with a low-pass filter frequency of 10 kHz and a sampling frequency of 50 kHz or a low-pass filter frequency of 2 kHz and a sampling frequency of 10 kHz. Single-channel data analysis was conducted using Clampfit 11.0 (Molecular devices, CA). Histogram plotting were performed in OriginPro 2022 (OriginLab).” left out

DcWza = experiment: Single-channel analyte blocking of DcWza pore; conditions: 100 μM, trans; +100 mV; 1 M KCl, 10 mM HEPES, pH 7.4
Protocol: as §1, with “A potential difference was applied through a pair of Ag/AgCl electrodes, set in 3% agarose containing 3.0 M KCl. We investigated the ion selectivity of pores using the KCl salt gradient applied across the bilayer chambers (1 M cis /0.15 M trans).” left out, “The current was amplified using an Axopatch 200B amplifier, digitized with a Digidata 1550B digitizer (pCLAMP 11.0, Molecular Devices, CA) with a low-pass filter frequency of 10 kHz and a sampling frequency of 50 kHz or a low-pass filter frequency of 2 kHz and a sampling frequency of 10 kHz. Single-channel data analysis was conducted using Clampfit 11.0 (Molecular devices, CA). Histogram plotting were performed in OriginPro 2022 (OriginLab).” left out

| SMILES | pore block (closure) of DpPorA (S) (DpPorA; 10 μM analyte, cis, negative voltages) [%] | ion current blockage of single DpPorA (in words) (DpPorA) | mean blockage time (τoff) (LpPorA) [ms] | ion current blockage of DcWza in the open state (in words) (DcWza) |
| --- | --- | --- | --- | --- |
| NCC1OC2OC3C(CN)OC(OC4C(CN)OC(OC5C(CN)OC(OC6C(CN)OC(OC7C(CN)OC(OC8C(CN)OC(OC9C(CN)OC(OC1C(O)C2O)C(O)C9O)C(O)C8O)C(O)C7O)C(O)C6O)C(O)C5O)C(O)C4O)C(O)C3O (centres unmarked) [am8γCD] | 100 | complete pore closure | 0.22 ± 0.03 | no blockages were observed |
| OC[C@H]1O[C@@H]2O[C@H]3[C@H](O)[C@@H](O)[C@@H](O[C@H]4[C@H](O)[C@@H](O)[C@@H](O[C@H]5[C@H](O)[C@@H](O)[C@@H](O[C@H]6[C@H](O)[C@@H](O)[C@@H](O[C@H]7[C@H](O)[C@@H](O)[C@@H](O[C@H]8[C@H](O)[C@@H](O)[C@@H](O[C@H]9[C@H](O)[C@@H](O)[C@@H](O[C@H]1[C@H](O)[C@H]2O)O[C@@H]9CO)O[C@@H]8CO)O[C@@H]7CO)O[C@@H]6CO)O[C@@H]5CO)O[C@@H]4CO)O[C@@H]3CO [γCD] |  | did not produce any current blockages |  |  |
